In ChEMBL document CHEMBL5131537 (J Med Chem, 2022):

Tests used:
[1] = AUC (0 to t) in Sprague-Dawley rat at 1 mg/kg, iv measured after 0.083 to 24 hrs by LC-MS analysis; assay type: ADME, organism-based; parameters: time upper 24 hrs, dose 1 mg/kg, time lower 0.083 hrs, route iv; settings: in vivo
Cytochrome P450 2C9 = Cytochrome P450 2C9 (Homo sapiens, UniProt P11712); experiment: Inhibition of CYP2C9 in human liver microsomes using diclofenac as substrate incubated for 15 to 45 mins in presence of NADPH
Cytochrome P450 2C9, sequence (P11712 whole entry): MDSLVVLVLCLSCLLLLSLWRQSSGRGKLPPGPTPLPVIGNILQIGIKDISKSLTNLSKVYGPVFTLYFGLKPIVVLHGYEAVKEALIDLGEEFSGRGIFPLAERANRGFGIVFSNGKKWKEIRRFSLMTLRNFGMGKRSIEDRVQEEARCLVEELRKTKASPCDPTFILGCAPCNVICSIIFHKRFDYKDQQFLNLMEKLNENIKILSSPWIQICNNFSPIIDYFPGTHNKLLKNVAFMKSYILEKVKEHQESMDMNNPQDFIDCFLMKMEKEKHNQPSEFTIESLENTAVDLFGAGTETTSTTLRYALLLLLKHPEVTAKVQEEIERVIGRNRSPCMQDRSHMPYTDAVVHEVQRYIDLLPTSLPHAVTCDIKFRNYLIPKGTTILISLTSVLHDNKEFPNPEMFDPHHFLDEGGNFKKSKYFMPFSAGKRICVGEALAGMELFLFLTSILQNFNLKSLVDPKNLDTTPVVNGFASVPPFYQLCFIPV

Cytochrome P450 2D6 = Cytochrome P450 2D6 (Homo sapiens, UniProt P10635); experiment: Inhibition of CYP2D6 in human liver microsomes using dextromethorphan as substrate incubated for 15 to 45 mins in presence of NADPH
Cytochrome P450 2D6, sequence (P10635 whole entry): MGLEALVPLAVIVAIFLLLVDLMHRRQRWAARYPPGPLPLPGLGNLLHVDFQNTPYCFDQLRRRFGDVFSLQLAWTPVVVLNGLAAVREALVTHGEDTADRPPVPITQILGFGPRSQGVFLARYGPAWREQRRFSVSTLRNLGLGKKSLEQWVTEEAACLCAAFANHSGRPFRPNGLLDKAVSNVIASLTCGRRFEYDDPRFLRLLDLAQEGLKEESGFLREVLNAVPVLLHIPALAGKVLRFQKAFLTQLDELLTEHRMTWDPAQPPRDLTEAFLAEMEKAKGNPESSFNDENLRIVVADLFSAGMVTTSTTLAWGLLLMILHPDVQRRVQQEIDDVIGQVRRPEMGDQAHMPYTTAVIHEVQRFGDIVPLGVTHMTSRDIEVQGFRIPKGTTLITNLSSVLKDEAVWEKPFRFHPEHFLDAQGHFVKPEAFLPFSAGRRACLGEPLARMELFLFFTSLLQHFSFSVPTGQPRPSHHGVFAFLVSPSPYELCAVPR

[2] = Acute toxicity in 12 hr fasted male CD-1(ICR) mouse assessed as pathological damage in brain at 2 g/kg, IG administered as single dose measured after 14 days by H and E staining based analysis; assay type: tissue-based; settings: in vivo, po, 2000 mg/kg, 336 h, time 14 day
[3] = Acute toxicity in 12 hr fasted male CD-1(ICR) mouse assessed as pathological damage in spleen at 2 g/kg, IG administered as single dose measured after 14 days by H and E staining based analysis; assay type: tissue-based; settings: in vivo, po, 2000 mg/kg, 336 h, time 14 day
[4] = Clearance in Sprague-Dawley rat at 1 mg/kg, iv measured after 0.083 to 24 hrs by LC-MS analysis; assay type: ADME, organism-based; settings: in vivo, time 0.083-24 hrs
hERG (KCNH2) = hERG (KCNH2) (Homo sapiens, UniProt Q12809); experiment: Inhibition of human ERG potassium channel transfected in CHO cells at 40 uM by automated patch clamp assay; assay type: toxicity, cell-based; settings: CHO cells transfected with hERG
hERG (KCNH2), sequence (Q12809 whole entry): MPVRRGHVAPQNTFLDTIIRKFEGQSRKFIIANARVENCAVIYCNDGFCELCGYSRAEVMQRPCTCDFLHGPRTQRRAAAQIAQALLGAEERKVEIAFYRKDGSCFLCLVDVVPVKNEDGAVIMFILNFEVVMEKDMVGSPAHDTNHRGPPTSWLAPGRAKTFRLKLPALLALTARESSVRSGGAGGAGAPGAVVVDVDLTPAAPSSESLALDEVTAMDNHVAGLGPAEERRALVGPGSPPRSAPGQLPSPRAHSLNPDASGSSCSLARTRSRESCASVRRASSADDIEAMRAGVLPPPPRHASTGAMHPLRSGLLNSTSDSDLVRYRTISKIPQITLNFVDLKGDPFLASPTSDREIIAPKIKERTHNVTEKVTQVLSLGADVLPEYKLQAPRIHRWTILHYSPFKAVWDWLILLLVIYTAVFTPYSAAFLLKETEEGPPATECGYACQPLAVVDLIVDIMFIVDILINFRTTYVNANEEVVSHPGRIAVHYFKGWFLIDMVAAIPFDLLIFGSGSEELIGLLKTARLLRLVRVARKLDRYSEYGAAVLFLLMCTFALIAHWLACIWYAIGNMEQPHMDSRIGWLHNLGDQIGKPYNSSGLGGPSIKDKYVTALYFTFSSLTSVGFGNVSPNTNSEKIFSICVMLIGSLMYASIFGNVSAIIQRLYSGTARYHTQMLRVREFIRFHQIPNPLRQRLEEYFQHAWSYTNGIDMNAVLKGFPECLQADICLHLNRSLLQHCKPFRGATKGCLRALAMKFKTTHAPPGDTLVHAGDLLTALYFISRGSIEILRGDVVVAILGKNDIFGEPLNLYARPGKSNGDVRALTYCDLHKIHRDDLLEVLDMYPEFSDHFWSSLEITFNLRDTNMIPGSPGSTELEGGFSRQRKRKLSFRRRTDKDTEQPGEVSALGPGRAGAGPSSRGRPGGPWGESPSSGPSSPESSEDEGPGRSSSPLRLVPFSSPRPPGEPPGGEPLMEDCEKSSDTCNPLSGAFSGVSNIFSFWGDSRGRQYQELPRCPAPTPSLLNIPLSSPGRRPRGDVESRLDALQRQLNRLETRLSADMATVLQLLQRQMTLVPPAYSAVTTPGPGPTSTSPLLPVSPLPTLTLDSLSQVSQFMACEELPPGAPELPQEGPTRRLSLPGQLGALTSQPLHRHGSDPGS

[5] = Acute toxicity in 12 hr fasted male CD-1(ICR) mouse assessed as pathological damage in liver at 2 g/kg, IG administered as single dose measured after 14 days by H and E staining based analysis; assay type: tissue-based; settings: in vivo, po, 2000 mg/kg, 336 h, time 14 day
[6] = Cytotoxicity against human MT4 cells assessed as reduction in cell viability by MTT assay; assay type: toxicity, cell-based
[7] = Acute toxicity in 12 hr fasted female CD-1(ICR) mouse assessed as pathological damage in heart at 2 g/kg, IG administered as single dose measured after 14 days by H and E staining based analysis; assay type: tissue-based; settings: in vivo, po, 2000 mg/kg, 336 h, time 14 day
Cytochrome P450 2C19 = Cytochrome P450 2C19 (Homo sapiens, UniProt P33261); experiment: Inhibition of CYP2C19 in human liver microsomes using S-mephenytoin as substrate incubated for 15 to 45 mins in presence of NADPH
Cytochrome P450 2C19, sequence (P33261 whole entry): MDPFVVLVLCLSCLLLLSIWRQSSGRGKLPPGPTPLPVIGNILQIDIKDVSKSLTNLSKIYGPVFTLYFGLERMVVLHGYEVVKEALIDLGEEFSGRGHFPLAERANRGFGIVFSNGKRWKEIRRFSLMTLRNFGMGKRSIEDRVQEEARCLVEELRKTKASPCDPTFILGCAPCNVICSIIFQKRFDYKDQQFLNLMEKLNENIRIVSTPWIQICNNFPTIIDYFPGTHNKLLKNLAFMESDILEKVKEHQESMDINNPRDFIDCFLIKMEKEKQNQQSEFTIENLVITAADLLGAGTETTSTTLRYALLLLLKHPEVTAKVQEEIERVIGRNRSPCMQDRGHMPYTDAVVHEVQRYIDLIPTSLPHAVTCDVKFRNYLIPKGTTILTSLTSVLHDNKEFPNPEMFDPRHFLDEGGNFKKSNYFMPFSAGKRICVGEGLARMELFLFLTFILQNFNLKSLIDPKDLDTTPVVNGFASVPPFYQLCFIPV

[8] = AUC (0 to infinity) in Sprague-Dawley rat at 1 mg/kg, iv measured after 0.083 to 24 hrs by LC-MS analysis; assay type: ADME, organism-based; parameters: dose 1 mg/kg, time 0.083-24 hrs, route iv; settings: in vivo
[9] = Half life in Sprague-Dawley rat at 1 mg/kg, iv measured after 0.083 to 24 hrs by LC-MS analysis; assay type: ADME, organism-based; settings: in vivo, time 0.083-24 hrs
in vitro = settings: human, MT4 cells
Description: Selectivity index, ratio of CC50 for cytotoxicity against human MT4 cells to EC50 for antiviral activity against wild type HIV-1 IIIB infected in human MT4 cells

[10] = Acute toxicity in 12 hr fasted male CD-1(ICR) mouse assessed as animal death at 2 g/kg, IG administered as single dose measured after 14 days; settings: in vivo, po, 2000 mg/kg, 336 h, time 14 day
[11] = Acute toxicity in 12 hr fasted female CD-1(ICR) mouse assessed as behavioral abnormalities at 2 g/kg, IG administered as single dose measured after 14 days; settings: in vivo, po, 2000 mg/kg, 336 h, time 14 day
[12] = system: Human immunodeficiency virus 1; experiment: Antiviral activity against HIV-1 IIIB harboring reverse transcriptase Y181C mutant infected in human MT4 cells by MTT assay; assay type: functional, organism-based; settings: Human immunodeficiency virus 1, IIIB
[13] = Cmax in Sprague-Dawley rat at 5 mg/kg, po measured after 0.083 to 24 hrs by LC-MS analysis; assay type: ADME, organism-based; parameters: dose 5 mg/kg, time 0.083-24 hrs, route po; settings: in vivo
[14] = system: Human immunodeficiency virus 1; experiment: Antiviral activity against HIV-1 IIIB harboring reverse transcriptase K103N mutant infected in human MT4 cells by MTT assay; assay type: functional, organism-based; settings: Human immunodeficiency virus 1, IIIB
[15] = Acute toxicity in 12 hr fasted female CD-1(ICR) mouse assessed as changes in body weight at 2 g/kg, IG administered as single dose measured after 14 days; settings: in vivo, po, 2000 mg/kg, 336 h, time 14 day
[16] = Acute toxicity in 12 hr fasted male CD-1(ICR) mouse assessed as pathological damage in lung at 2 g/kg, IG administered as single dose measured after 14 days by H and E staining based analysis; assay type: tissue-based; settings: in vivo, po, 2000 mg/kg, 336 h, time 14 day
[17] = Acute toxicity in 12 hr fasted female CD-1(ICR) mouse assessed as pathological damage in liver at 2 g/kg, IG administered as single dose measured after 14 days by H and E staining based analysis; assay type: tissue-based; settings: in vivo, po, 2000 mg/kg, 336 h, time 14 day
[18] = molecular target: Voltage-gated inwardly rectifying potassium channel KCNH2 (Homo sapiens, UniProt Q12809); experiment: Inhibition of human ERG potassium channel transfected in CHO cells by automated patch clamp assay; assay type: toxicity, cell-based
Voltage-gated inwardly rectifying potassium channel KCNH2, sequence (Q12809 whole entry): as the sequence (Q12809 whole entry) above

[19] = AUC (0 to t) in Sprague-Dawley rat at 5 mg/kg, po measured after 0.083 to 24 hrs by LC-MS analysis; assay type: ADME, organism-based; parameters: dose 5 mg/kg, time upper 24 hrs, time lower 0.083 hrs, route po; settings: in vivo
[20] = system: Human immunodeficiency virus 1; experiment: microbe, parasite or virus in culture; settings: Human immunodeficiency virus 1, IIIB, MT4
Description: Antiviral activity against HIV-1 IIIB harboring reverse transcriptase Y188L mutant infected in human MT4 cells by MTT assay

Cytochrome P450 3A4 = Cytochrome P450 3A4 (Homo sapiens, UniProt P08684); experiment: Inhibition of CYP3A4 in human liver microsomes using midazolam as substrate incubated for 15 to 45 mins in presence of NADPH
Cytochrome P450 3A4, sequence (P08684 whole entry): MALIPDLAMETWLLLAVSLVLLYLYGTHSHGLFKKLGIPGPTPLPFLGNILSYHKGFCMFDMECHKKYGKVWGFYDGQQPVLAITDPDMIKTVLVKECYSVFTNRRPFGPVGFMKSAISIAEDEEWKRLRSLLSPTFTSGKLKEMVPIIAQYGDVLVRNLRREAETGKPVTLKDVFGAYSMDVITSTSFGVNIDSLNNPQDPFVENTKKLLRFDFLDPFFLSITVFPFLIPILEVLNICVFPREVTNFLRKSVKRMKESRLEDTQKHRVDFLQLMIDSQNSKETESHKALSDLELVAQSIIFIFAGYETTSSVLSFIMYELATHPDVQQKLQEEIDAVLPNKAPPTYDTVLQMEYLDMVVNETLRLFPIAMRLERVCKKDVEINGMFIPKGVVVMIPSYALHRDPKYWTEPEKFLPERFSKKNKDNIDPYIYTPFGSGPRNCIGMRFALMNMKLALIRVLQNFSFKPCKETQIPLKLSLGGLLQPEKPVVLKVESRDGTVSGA

[21] = Tmax in Sprague-Dawley rat at 1 mg/kg, iv measured after 0.083 to 24 hrs by LC-MS analysis; assay type: ADME, organism-based; settings: in vivo, time 0.083-24 hrs
Cytochrome P450 1A2 = molecular target: T1, Cytochrome P450 1A2 (Homo sapiens, UniProt P05177); experiment: Inhibition of CYP1A2 in human liver microsomes using phenacetin as substrate incubated for 15 to 45 mins in presence of NADPH
T1 sequence (P05177 whole entry): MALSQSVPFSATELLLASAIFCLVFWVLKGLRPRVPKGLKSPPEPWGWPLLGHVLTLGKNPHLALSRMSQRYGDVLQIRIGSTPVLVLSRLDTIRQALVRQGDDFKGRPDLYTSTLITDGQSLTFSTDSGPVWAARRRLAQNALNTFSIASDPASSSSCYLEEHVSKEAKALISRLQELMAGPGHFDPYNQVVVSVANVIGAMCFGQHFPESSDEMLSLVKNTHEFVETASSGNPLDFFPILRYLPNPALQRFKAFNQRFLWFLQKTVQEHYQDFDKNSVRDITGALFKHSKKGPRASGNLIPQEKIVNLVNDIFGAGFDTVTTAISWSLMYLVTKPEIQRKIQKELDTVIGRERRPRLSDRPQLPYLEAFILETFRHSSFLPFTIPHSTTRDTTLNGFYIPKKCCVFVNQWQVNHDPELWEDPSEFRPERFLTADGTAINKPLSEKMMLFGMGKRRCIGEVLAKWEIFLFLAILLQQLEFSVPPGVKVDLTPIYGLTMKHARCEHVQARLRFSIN

[22] = Acute toxicity in 12 hr fasted female CD-1(ICR) mouse assessed as pathological damage in spleen at 2 g/kg, IG administered as single dose measured after 14 days by H and E staining based analysis; assay type: tissue-based; settings: in vivo, po, 2000 mg/kg, 336 h, time 14 day
[23] = MRT (0 to infinity) in Sprague-Dawley rat at 5 mg/kg, po measured after 0.083 to 24 hrs by LC-MS analysis; assay type: ADME, organism-based; settings: in vivo, time 0.083-24 hrs
[24] = Acute toxicity in 12 hr fasted female CD-1(ICR) mouse assessed as animal death at 2 g/kg, IG administered as single dose measured after 14 days; settings: in vivo, po, 2000 mg/kg, 336 h, time 14 day

## COc1cc(-c2ccc(C#N)cc2)ccc1Oc1cc(N)nc(Nc2ccc(C#N)cc2)n1
[1]
  AUC(0-t): 326 ng·h/mL
Cytochrome P450 2C9
  IC50: 5.16 µM
Cytochrome P450 2D6
  IC50: > 50 µM
[2]
  Activity: Non-Toxic
[3]
  Activity: Non-Toxic
[4]
  clearance: 51.6 mL/min/kg
hERG (KCNH2)
  inhibition at 40 µM: 35.9%
[5]
  Activity: Non-Toxic
[6]
  CC50: 120 µM
[7]
  Activity: Non-Toxic
Cytochrome P450 2C19
  IC50: 4.51 µM
[8]
  AUC(0-inf): 329 ng·h/mL
[9]
  half-life: 1 h
In vitro
  selectivity ratio: 63400
[10]
  Activity: Non-Toxic
[11]
  Activity: Non-Toxic
[12]
  EC50: 0.029 µM
[13]
  Cmax: 44.8 ng/mL
[14]
  EC50: 0.004 µM
[15]
  Activity: Non-Toxic
[16]
  Activity: Non-Toxic
[17]
  Activity: Non-Toxic
[18]
  IC50: > 40 µM
[19]
  AUC(0-t): 116 ng·h/mL
[20]
  EC50: 0.57 µM
Cytochrome P450 3A4
  IC50: > 50 µM
[21]
  Tmax: 4.8 min
Cytochrome P450 1A2
  IC50: > 50 µM
[22]
  Activity: Non-Toxic
[23]
  MRT inf: 2.89 h
[24]
  Activity: Non-Toxic
